Patent US20250042894A1, “PROTEIN TYROSINE PHOSPHATASE INHIBITORS AND METHODS OF USE THEREOF” (Calico Life Sciences LLC, priority 2021, published 2025)
Read-outs that look alike come from different tables or passages of the source.

Assays:
[1] = system: IFNγ-induced STAT1 phosphorylation (pSTAT1) in B16F10 cells; assay: B16F10 Phospho-STAT1 HTRF proximal pharmacodynamic (PD) assay; assay type: cell-based, murine; details: for EC50: B16-F10; for Thiochromane x-fold>potency cellular: pSTAT1 EC50 of chromane comparator over thiochromane
Procedure, shortened: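 Murine B16F10 melanoma cells dosed 3 h at 37 °C (10-point, 3-fold dilution from 50 μM top dose), then stimulated 10 min with recombinant mouse IFNγ (100 nM final) and stopped with 3.3 μM staurosporine for 1 h. pSTAT1 in lysates detected by HTRF (Eu cryptate/d2 antibodies, 3 h RT, 665 nm emission); EC50 from dose-response curves.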

[2] = target: T1, His tagged PTPN2 (TC45) protein (Homo sapiens, UniProt P17706); assay: Mobility Shift Assay (MSA) for PTPN2 inhibitors; assay type: biochemical; details: for Thiochromane x-fold>potency biochemical: Table 3, PTPN2 MSA IC50 of chromane comparator over thiochromane; for IC50: enzyme 0.5 nM, substrate 2 μM, 10 minutes preincubation at room temperature
T1 construct: His; made in house
T1 sequence (P17706 1-387 isoform P17706-2): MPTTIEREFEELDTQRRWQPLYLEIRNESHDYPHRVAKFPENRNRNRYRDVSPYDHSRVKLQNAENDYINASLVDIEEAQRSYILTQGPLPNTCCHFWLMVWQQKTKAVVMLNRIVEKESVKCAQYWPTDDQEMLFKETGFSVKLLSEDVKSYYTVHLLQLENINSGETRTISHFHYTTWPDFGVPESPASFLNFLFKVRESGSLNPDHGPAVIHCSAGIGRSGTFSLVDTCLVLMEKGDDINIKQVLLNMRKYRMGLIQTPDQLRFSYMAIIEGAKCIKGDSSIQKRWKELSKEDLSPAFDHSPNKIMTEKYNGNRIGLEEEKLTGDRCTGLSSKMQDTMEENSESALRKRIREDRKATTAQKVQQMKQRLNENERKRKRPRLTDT
Procedure, shortened: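 Enzyme (0.5 nM) preincubated 10 min at RT with compound (12-point, 1:3 dilution) in 50 mM HEPES pH 7.5, 10 mM EDTA, 2 mM DTT; OG488-labelled phospho-insulin-receptor peptide substrate (2 μM) then added for 10 min. After quench, dephosphorylation measured by microfluidic mobility shift (ex 488/em 530 nm); IC50 from % inhibition.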

[3] = target: T2, His tagged full-length PTPN1 protein (Homo sapiens, UniProt P18031); assay: Mobility Shift Assay (MSA) for PTPN1 inhibitors; assay type: biochemical; details: enzyme 0.5 nM, substrate 2 μM, 10 minutes preincubation at room temperature
T2 construct: His; made in house
T2 sequence (P18031 1-435): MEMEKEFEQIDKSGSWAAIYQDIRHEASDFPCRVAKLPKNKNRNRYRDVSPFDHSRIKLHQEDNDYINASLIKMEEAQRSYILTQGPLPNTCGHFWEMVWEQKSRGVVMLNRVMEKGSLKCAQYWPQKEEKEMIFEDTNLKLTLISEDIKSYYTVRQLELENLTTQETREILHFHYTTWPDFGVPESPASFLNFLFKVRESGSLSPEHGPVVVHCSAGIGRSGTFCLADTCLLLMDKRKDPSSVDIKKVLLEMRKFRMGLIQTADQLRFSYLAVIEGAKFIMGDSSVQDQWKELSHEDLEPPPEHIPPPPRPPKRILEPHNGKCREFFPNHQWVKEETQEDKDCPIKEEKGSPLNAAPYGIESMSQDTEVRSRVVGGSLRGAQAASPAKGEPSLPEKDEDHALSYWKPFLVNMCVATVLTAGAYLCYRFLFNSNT
Procedure, shortened: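 Full-length His-tagged human PTPN1 (0.5 nM) was pre-incubated 10 min at RT with compound (12-point, 1:3) in HEPES pH 7.5 buffer with EGTA, EDTA, Tween-20 and DTT. Fluorescent phospho-insulin-receptor peptide (2 μM) was then added for 10 min. After quench, dephosphorylation was measured by microfluidic mobility shift, and IC50 was taken from % inhibition.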

[4] = Table 2, 3 hours compound, then mouse IFNγ 100 nM 10 minutes, top dose 50 μM, read-out: B16F10 IFNγ Induced pSTAT1 EC50
[5] = Mus musculus, Table 3, B16F10 cells, IFNγ-induced, thiochromanes (X = S) and chromane comparators (X = O), read-out: pSTAT1 EC50

EC50 [1, 4] [nM]	EC50 [1, 5] [nM]	IC50 [3] [nM]	SMILES	Thiochromane x-fold>potency cellular ([1]; Table 3)	Thiochromane x-fold>potency biochemical [2]	IC50 [2] [nM]
25700	25700	10 to 100	O=C1CN(c2c(O)cc3c(c2F)C[C@H](NCC2(CF)CC2)CS3)S(=O)(=O)N1 [Compound 128, 5-[(3S)-5-fluoro-3-({[1-(fluoromethyl)cyclopropyl]methyl}amino)-7-hydroxy-3,4-dihydro-2H-1-benzothiopyran-6-yl]-1λ^6,2,5-thiadiazolidine-1,1,3-trione]	>1.9	1.2	10 to 100
589		< 10	CC(F)(F)CCCN[C@@H]1CSc2cc(O)c(N3CC(=O)NS3(=O)=O)c(F)c2C1 [Compound 129, 5-{(3S)-3-[(4,4-difluoropentyl)amino]-5-fluoro-7-hydroxy-3,4-dihydro-2H-1-benzothiopyran-6-yl}-1λ^6,2,5-thiadiazolidine-1,1,3-trione]			< 10
4110		10 to 100	COCCCN[C@@H]1CSc2cc(O)c(N3CC(=O)NS3(=O)=O)c(F)c2C1 [Compound 130, 5-{(3S)-5-fluoro-7-hydroxy-3-[(3-methoxypropyl)amino]-3,4-dihydro-2H-1-benzothiopyran-6-yl}-1λ^6,2,5-thiadiazolidine-1,1,3-trione]			10 to 100
> 50000		> 100	O=C1CN(c2c(O)cc3c(c2F)C[C@H](NCCCn2cccn2)CS3)S(=O)(=O)N1 [Compound 131, 5-[(3S)-5-fluoro-7-hydroxy-3-{[3-(1H-pyrazol-1-yl)propyl]amino}-3,4-dihydro-2H-1-benzothiopyran-6-yl]-1λ^6,2,5-thiadiazolidine-1,1,3-trione]			10 to 100
1580		10 to 100	CC1(CCN[C@@H]2CSc3cc(O)c(N4CC(=O)NS4(=O)=O)c(F)c3C2)CC1 [Compound 132, 5-[(3S)-5-fluoro-7-hydroxy-3-{[2-(1-methylcyclopropyl)ethyl]amino}-3,4-dihydro-2H-1-benzothiopyran-6-yl]-1λ^6,2,5-thiadiazolidine-1,1,3-trione]			< 10
762		< 10	CC(CN[C@@H]1CSc2cc(O)c(N3CC(=O)NS3(=O)=O)c(F)c2C1)C1CC1 (stereo partly drawn) [Compound 133, 5-{(3S)-3-[(2-cyclopropylpropyl)amino]-5-fluoro-7-hydroxy-3,4-dihydro-2H-1-benzothiopyran-6-yl}-1λ^6,2,5-thiadiazolidine-1,1,3-trione]			< 10
> 50000		10 to 100	CC(CCN[C@@H]1CSc2cc(O)c(N3CC(=O)NS3(=O)=O)c(F)c2C1)c1ccccc1 (stereo partly drawn) [Compound 134, 5-{(3S)-5-fluoro-7-hydroxy-3-[(3-phenylbutyl)amino]-3,4-dihydro-2H-1-benzothiopyran-6-yl}-1λ^6,2,5-thiadiazolidine-1,1,3-trione]			< 10
688	688	10 to 100	O=C1CN(c2c(O)cc3c(c2F)C[C@H](NCC2CC(c4ccccc4)C2)CS3)S(=O)(=O)N1 (stereo partly drawn) [Compound 135, 5-[(3S)-5-fluoro-7-hydroxy-3-{[(3-phenylcyclobutyl)methyl]amino}-3,4-dihydro-2H-1-benzothiopyran-6-yl]-1λ^6,2,5-thiadiazolidine-1,1,3-trione]	>72.7	1.9	< 10
27600	27600	10 to 100	O=C1CN(c2c(O)cc3c(c2F)C[C@H](NCCCc2ccccc2)CS3)S(=O)(=O)N1 [Compound 136, 5-{(3S)-5-fluoro-7-hydroxy-3-[(3-phenylpropyl)amino]-3,4-dihydro-2H-1-benzothiopyran-6-yl}-1λ^6,2,5-thiadiazolidine-1,1,3-trione]	>1.8	0.8	10 to 100
